Assay results: patent publication US9586916B2, “Integrin antagonist conjugates for targeted delivery to cells expressing alpha-V-beta-3” (Hoffmann-La Roche Inc., priority 2012, dated 2017)

Target: T1, αVβ3 (Homo sapiens, UniProt P05106+P06756)
T1 construct: purchased R & D 3050-AV
Assay: Human αVβ3 solid phase assay (fibrinogen binding to coated αVβ3)
Conditions: αVβ3 coated plates, fibrinogen as ligand
Protocol: The following assay was conducted to assess αVβ3 binding affinity of the αVβ3-targeted compounds of this invention.
Human αVβ3 solid phase assay:
Immuno 96-well Plates (NUNC, Part#439454) were coated with αVβ3 (R & D, Cat#3050-AV) by adding 100 uL of αVβ3 (lx) to each well and incubating the plates overnight at […]. Buffer used was Buffer A: 20 mM Tris, 150 mM NaCl, 1 mM CaCl2, 1 mM MgCl2, pH7.4. After removal of the coating reagent, 150 uL of 3.5% BSA in Buffer A was added to each well to block the plates for 105 minutes at […]. After blocking, plates were washed 5 times with 200 uL of Buffer B (Buffer A+1 mM MnC12). 50 uL of test compound solution (2×) in 5% DMSO and 50 uL of fibrinogen (2×) (Innovative Research, Cat# IFIB) were then added to each well. Plates were shaken for 2 minutes, and then incubated for 2 hours for 370 C. After the plates were washed 5 times with 200 uL of Buffer B, the 1st antibody rabbit anti-human fibrinogen (Innovative Research, Cat IASHFBGN-GF) in the amount of 100 uL/well, and the 2nd antibody Goat anti-rabbit IgG Horse-radish peroxidase conjugate (Invitrogen, Cat#G21234) in the amount of 50 uL/well were added to plates, respectively. […] After being added 100 uL/well Stop Buffer (1.0 M Phosphoric Acid […]), plates were read on Envision at Absorbance mode 450 nm.

T1 sequence (P06756 31-992 limits assumed): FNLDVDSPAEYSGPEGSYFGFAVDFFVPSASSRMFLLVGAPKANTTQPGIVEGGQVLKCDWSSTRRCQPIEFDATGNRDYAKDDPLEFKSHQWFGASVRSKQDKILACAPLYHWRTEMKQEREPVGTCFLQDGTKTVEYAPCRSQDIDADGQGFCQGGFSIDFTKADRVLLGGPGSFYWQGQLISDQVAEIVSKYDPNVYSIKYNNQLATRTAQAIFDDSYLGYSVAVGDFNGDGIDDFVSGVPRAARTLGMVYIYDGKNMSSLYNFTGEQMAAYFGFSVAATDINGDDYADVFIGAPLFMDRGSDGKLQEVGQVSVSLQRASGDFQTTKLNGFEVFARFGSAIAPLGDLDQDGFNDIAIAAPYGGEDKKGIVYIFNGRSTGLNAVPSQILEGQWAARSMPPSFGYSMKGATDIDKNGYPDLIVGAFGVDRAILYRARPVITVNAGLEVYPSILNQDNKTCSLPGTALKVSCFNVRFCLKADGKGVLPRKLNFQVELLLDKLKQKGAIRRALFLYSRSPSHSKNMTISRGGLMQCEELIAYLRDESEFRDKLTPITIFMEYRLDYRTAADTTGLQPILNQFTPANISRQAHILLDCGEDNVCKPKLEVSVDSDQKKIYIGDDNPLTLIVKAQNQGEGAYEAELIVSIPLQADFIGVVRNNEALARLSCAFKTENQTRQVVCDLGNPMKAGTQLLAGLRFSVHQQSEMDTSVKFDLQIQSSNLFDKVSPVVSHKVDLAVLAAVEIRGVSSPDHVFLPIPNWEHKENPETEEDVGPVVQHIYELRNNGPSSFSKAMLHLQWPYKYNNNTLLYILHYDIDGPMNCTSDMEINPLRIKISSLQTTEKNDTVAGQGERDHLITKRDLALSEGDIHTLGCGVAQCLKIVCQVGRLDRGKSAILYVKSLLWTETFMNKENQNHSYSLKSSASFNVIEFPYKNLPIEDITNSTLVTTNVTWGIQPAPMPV
T1 sequence (P05106 27-718 limits assumed): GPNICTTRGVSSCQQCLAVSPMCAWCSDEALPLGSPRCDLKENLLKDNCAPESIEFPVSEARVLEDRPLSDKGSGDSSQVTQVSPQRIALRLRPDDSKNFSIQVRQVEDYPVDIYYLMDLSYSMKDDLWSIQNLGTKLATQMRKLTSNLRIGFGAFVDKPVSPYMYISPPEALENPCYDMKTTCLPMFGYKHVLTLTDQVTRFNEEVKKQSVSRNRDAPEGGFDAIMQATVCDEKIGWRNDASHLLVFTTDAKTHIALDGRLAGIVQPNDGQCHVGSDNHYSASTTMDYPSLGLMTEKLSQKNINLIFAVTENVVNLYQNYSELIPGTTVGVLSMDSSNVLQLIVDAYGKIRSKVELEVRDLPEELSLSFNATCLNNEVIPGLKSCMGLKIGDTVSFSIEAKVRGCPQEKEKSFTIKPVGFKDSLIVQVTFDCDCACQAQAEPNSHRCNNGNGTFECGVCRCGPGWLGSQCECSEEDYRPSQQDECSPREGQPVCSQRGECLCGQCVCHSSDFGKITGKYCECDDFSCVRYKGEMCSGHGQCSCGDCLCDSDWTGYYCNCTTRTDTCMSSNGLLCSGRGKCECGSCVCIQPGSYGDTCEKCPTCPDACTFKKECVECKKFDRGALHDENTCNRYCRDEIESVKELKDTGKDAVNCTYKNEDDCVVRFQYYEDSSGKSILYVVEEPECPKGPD

SMILES: COc1ccc(NC(=O)[C@H](CC(=O)O)NC(=O)CNC(=O)c2cccc(N=C(N)N)c2)cc1 [compound 141]
- IC50: ~2 nM
